Measurements reported in patent publication US20100130544A1, “USE OF PARASYM[…] ENHANCE AND […] CELL DIFFERENTIATION, RELATED METHODS AND COMPOSITIONS” (UNIVERSITA' DEGLI STUDI DI TORINO, priority 2006, published 2010).

Columns and labels:
[1] = system: peripheral blood monocytes; test: Phenotypic analysis (Western blotting, immunofluorescence) of monocytes stimulated towards hepatocytic type + parasympatholytic; type: cell-based, human; set-up: key to expression of CD34: −−−−− = absence of any fluorescence; + = 1-5 fluorescent cells per optical field; ++ = 6-10 fluorescent cells per optical field; +++ = 10-20 fluorescent cells per optical field; ++++ = 20-50 fluorescent cells per optical field; +++++ > 50 fluorescent cells per optical field; conditions: monocytes Hepatocytic type + parasympath. (HGF medium + 0.2 μg/mL scopolamine)
Protocol: (§1) Furthermore, samples of the same cells, taken every seventh day of incubation, have been incubated for 5-8 minutes with 2% lidocaine (Sigma Aldrich, Milan, Italy) in PBS and the solution thus obtained harvested, as described in the bibliography.
(§2) Western blotting first makes use of denaturing electrophoresis (SDS-PAGE) in order to separate the various proteins according to molecular weight, by cancelling out the charges on the amino acids which might influence migration. The cell samples, suspended in lysis buffer (1% SDS, 30 mM Tris pH 6.8, 5% glycerol) to which protease inhibitors (Protease Inhibitor Cocktail, Calbiochem, San Diego, Calif., USA) have been added, have been incubated for 30 minutes at 4° C. The lysates thus obtained have been centrifuged at 12,000 rpm for 20 minutes at 4° C. and the supernatants collected; the protein concentrations of the samples have been measured using the Bio-Rad method (Benchmark Plus assay, Bio-Rad). Prior to electrophoresis, the samples have been boiled for 5 minutes in the presence of beta-mercaptoethanol and bromophenol blue. The samples have been subjected to electrophoresis on a 12% gel (SDS-PAGE) and then transferred onto a PVDF membrane (Perkin Elmer Inc.). The membranes have been saturated with […] at room temperature and subsequently incubated overnight, at 4° C., with the following primary antibodies diluted 1:500 in PBS with 5% skimmed milk powder: anti-CD 34 (Santa Cruz Biotechnology, CA, USA), anti-CD 14 (Santa Cruz Biotechnology, CA, USA), anti-CD 45 (Santa Cruz Biotechnology, CA, USA), anti-CD 71 (Santa Cruz Biotechnology, CA, USA), anti-CD 90 (Santa Cruz Biotechnology, CA, USA), anti-CD 29 (Santa Cruz Biotechnology, CA, USA), anti-CD 105 (Santa Cruz Biotechnology, CA, USA), anti CD 117/c-KIT (Santa Cruz Biotechnology, CA, USA), anti c-MET (Santa Cruz Biotechnology, CA, USA), anti cytokeratin 7 (Santa Cruz Biotechnology, CA, USA), anti cytokeratin 8 (Santa Cruz Biotechnology, CA, USA), anti cytokeratin 18 (Santa Cruz Biotechnology, CA, USA), anti cytokeratin 19 (Santa Cruz Biotechnology, CA, USA), anti cytokeratin 7/17 (Santa Cruz Biotechnology, CA, USA), anti albumin (Rockland Immunochemicals, PA, USA), anti alpha-fetoprotein (Monosan Europa, Netherlands). After five washes, the membranes have been incubated with the corresponding secondary antibodies (1:1000) conjugated to horseradish peroxidase (HRP, SantaCruz Biotechnologies Inc., Santa Cruz, Calif., USA) for 1 hour at room temperature.
(§3) Cells in suspension have been incubated with […] MitoTracker Red for 10 minutes at 37° C. […] After three washes in PBS, the cells have been resuspended in a solution of PBS and 0.1% Triton for 1 hour at 4° C. After three washes in PBS, the cells have been seeded onto slide covers and the liquid allowed to evaporate-off in air. The cells have been blocked with 20% normal goat serum for one hour, then incubated for 30 minutes with the following fluorescein isothiocyanate (FITC) conjugated anti-human monoclonal antibodies: anti-CD 34 (Santa Cruz Biotechnology, CA, USA), anti-CD 14 (Santa Cruz Biotechnology, CA, USA), anti-CD 45 (Santa Cruz Biotechnology, CA, USA), anti-CD 71 (Santa Cruz Biotechnology, CA, USA), anti-CD 90 (Santa Cruz Biotechnology, CA, USA), anti-CD 29 (Santa Cruz Biotechnology, CA, USA), anti-CD 105 (Santa Cruz Biotechnology, CA, USA), anti CD 117/c-KIT (Santa Cruz Biotechnology, CA, USA), anti c-KIT (Santa Cruz Biotechnology, CA, USA), anti c-MET (Santa Cruz Biotechnology, CA, USA), anti cytokeratin 7 (Santa Cruz Biotechnology, CA, USA), anti cytokeratin 8 (Santa Cruz Biotechnology, CA, USA), anti cytokeratin 18 (Santa Cruz Biotechnology, CA, USA), anti cytokeratin 19 (Santa Cruz Biotechnology, CA, USA), anti cytokeratin 7/17 (Santa Cruz Biotechnology, CA, USA), anti albumin (Rockland Immunochemicals, PA, USA), anti alpha-fetoprotein (Monosan Europa, Netherlands). […]

Synovial cells (SynCs) = test: Phenotypic analysis (Western blotting, immunofluorescence) of synovial cells stimulated towards hepatocytic type + parasympatholytic; type: cell-based, human; conditions: Synovial cells Hepatocytic type + parasympath. (HGF medium + 0.2 μg/mL scopolamine)
Protocol: Synovial cells (SynCs) have been obtained from patients during exeresis and curettage of the synovial membrane inside the femoral-tibial joint cavity. Fresh synovial tissue sections have been disaggregated in collagenase (10 μg per mL of medium, Sigma) for two hours at 37° C. The pellet, washed twice in DMEM-LG (Gibco; Grand Island, N.Y., USA), free of any supplements, by centrifugation at 160 g for 10 minutes and then resuspended in complete low-glucose Dulbecco's modified Eagle's medium ([DMEM-LG] GIBCO; Grand Island, N.Y., USA) supplemented with 10% foetal bovine serum ([FBS] Sigma), 10 U/mL penicillin G, and 40 μg/mL gentamycin, is finally seeded into 75 cm^2 flasks and incubated in 5% CO2 at a temperature of 37° C. After 24 hours, the medium, along with any cells still in suspension, has been aspirated off and fresh medium (DMEM-LG, Gibco; Grand Island, N.Y., USA, supplemented with 10% FBS, Sigma, 10 U/mL penicillin G, and 40 μg/mL gentamycin) has been added over the adhered cells. The cells have been grown in 75 cm^2 flasks in an incubator with 5% CO2 at a temperature of 37° C. When the cells reach 80% confluence, they are detached using trypsin-EDTA (5 minutes incubation at 37° C. followed by the addition of 5 mL of pure FBS, and the detached cells in suspension are harvested), washed twice by centrifugation at 160 g for 7 minutes at 37° C. in DMEM-LG medium (Gibco; Grand Island, N.Y., USA) free of any supplements. The cells in the pellets thus obtained are resuspended at a concentration of 1×10^6 in fresh DMEM-LG medium (Gibco; Grand Island, N.Y., USA) supplemented with 10% foetal bovine serum ([FBS] Sigma), 10 U/mL penicillin G, and 40 μg/mL gentamycin. The cells have been reseeded after 1:4 dilution (final concentration 2.5×10^4). In this study, cells after the second passage in continuous culture have been used.
As described above in detail, every seventh day of incubation samples of all confluent MSC and SynC cells have been subjected to immunofluorescence testing of samples adhered onto sell culture slides. […]
Western blotting first makes use of denaturing electrophoresis (SDS-PAGE) in order to separate the various proteins according to molecular weight, by cancelling out the charges on the amino acids which might influence migration. […] The lysates thus obtained have been centrifuged at 12,000 rpm for 20 minutes at 4° C. and the supernatants collected; the protein concentrations of the samples have been measured using the Bio-Rad method (Benchmark Plus assay, Bio-Rad). […]

[2] = system: Human mesenchymal pluripotent stem cells (MSCs); test: Phenotypic analysis (Western blotting, immunofluorescence) of mesenchymal cells stimulated towards hepatocytic type + parasympatholytic; type: cell-based; conditions: Mesenchymal cells Hepatocytic type + parasympath. (HGF medium + 0.2 μg/mL scopolamine)
Description: Human mesenchymal pluripotent stem cells (MSCs, mesenchymal Stem Cells) have been extracted from samples of bone marrow (BM) taken from the femoral head (spongy tissue and bone marrow) during complete hip-replacement surgery. The nucleated cells have been separated by means of a density gradient (Ficoll-Paque, Amersham) and resuspended in low-glucose Dulbecco's modified Eagle's medium (DMEM-LG, Gibco, Grand Island, N.Y., USA) supplemented with 10% foetal bovine serum (FBS, Sigma), 10 U/mL penicillin G, and 40 μg/mL gentamycin. After 24 hours in culture, the medium, along with any cells in suspension, has been removed by aspiration and fresh medium added onto the adhered cells. The cells have been grown in 75 cm^2 flasks in an incubator with 5% CO2 at a temperature of 37° C. When the cells reach 80% confluence, they are detached using trypsin-EDTA (5 minutes incubation at 37° C. followed by the addition of 5 mL of pure FBS, and the detached cells in suspension are harvested), washed twice by centrifugation at 160 g for 7 minutes at 37° C. in DMEM-LG medium (Gibco; Grand Island, N.Y., USA) free of any supplements. The cells in the pellets thus obtained are resuspended at a concentration of 1×10^6 in fresh DMEM-LG medium (Gibco; Grand Island, N.Y., USA) supplemented with 10% foetal bovine serum (FBS, Sigma), 10 U/mL penicillin G, and 40 μg/mL gentamycin. The cells are reseeded after 1:4 dilution (final concentration 2.5×10^4). In this study, cells after the third passage in continuous culture have been used.
As described above in detail, every seventh day of incubation samples of all confluent MSC and SynC cells have been subjected to immunofluorescence testing of samples adhered onto sell culture slides.
Furthermore, every seventh day of incubation, samples of the same cells have been detached using trypsin-EDTA (5 minutes at a temperature of 37° C. followed by the addition of 5 mL of pure FBS and the detached cells in suspension harvested) and washed twice by centrifugation at 160 g for 7 minutes at 37° C. in DMEM-LG (Gibco; Grand Island, N.Y., USA) without any supplements.
Western blotting first makes use of denaturing electrophoresis (SDS-PAGE) in order to separate the various proteins according to molecular weight, by cancelling out the charges on the amino acids which might influence migration. The cell samples, suspended in lysis buffer (1% SDS, 30 mM Tris pH 6.8, 5% glycerol) to which protease inhibitors (Protease Inhibitor Cocktail, Calbiochem, San Diego, Calif., USA) have been added, have been incubated for 30 minutes at 4° C. The lysates thus obtained have been centrifuged at 12,000 rpm for 20 minutes at 4° C. and the supernatants collected; the protein concentrations of the samples have been measured using the Bio-Rad method (Benchmark Plus assay, Bio-Rad). Prior to electrophoresis, the samples have been boiled for 5 minutes in the presence of beta-mercaptoethanol and bromophenol blue. The samples have been subjected to electrophoresis on a 12% gel (SDS-PAGE) and then transferred onto a PVDF membrane (Perkin Elmer Inc.). […]

THP-1 cells (PSC-THP1) = test: Phenotypic analysis (Western blotting, immunofluorescence) of PSC-THP1 stimulated towards hepatocytic type + parasympatholytic; type: cell-based, human; set-up: key to expression of CD34: −−−−− = absence of any fluorescence; + = 1-5 fluorescent cells per optical field; ++ = 6-10 fluorescent cells per optical field; +++ = 10-20 fluorescent cells per optical field; ++++ = 20-50 fluorescent cells per optical field; +++++ > 50 fluorescent cells per optical field; conditions: PSC-THP1 Hepatocytic type + parasympath. (HGF medium + 0.2 μg/mL scopolamine)
Protocol: as §1, §2, §3

CN1[C@@H]2C[C@@H](OC(=O)[C@H](CO)c3ccccc3)C[C@H]1[C@@H]1O[C@@H]12 [scopolamine, [7(S)-(1α,2β,4β,5α,7β)]-α-(hydroxymethyl)acid benzenacetic-9-methyl-3-oxa-9-azatricyclo[3.3.1.02,4]non-7-yl-ester]
expression of CD14 [1]: + (+ = 1-5 fluorescent cells per optical field)
expression of CD34 [1]: −−−−−
expression of Cytokeratin 7 [1]: +++++ (+++++ > 50 fluorescent cells per optical field)
expression of Cytokeratin 8 [1]: ++++ (++++ = 20-50 fluorescent cells per optical field)
expression of Cytokeratin 18 [1]: +++ (+++ = 10-20 fluorescent cells per optical field)
expression of Cytokeratin 19 [1]: +++++ (+++++ > 50 fluorescent cells per optical field)
expression of Cytokeratins 7/17 [1]: ++++ (++++ = 20-50 fluorescent cells per optical field)
expression of Human albumin [1]: +++++ (+++++ > 50 fluorescent cells per optical field)
expression of alpha-fetoprotein [1]: ++ (++ = 6-10 fluorescent cells per optical field)
expression of c-KIT [1]: + (+ = 1-5 fluorescent cells per optical field)
expression of c-Met [1]: ++ (++ = 6-10 fluorescent cells per optical field)
expression of CD71 (Synovial cells (SynCs)): ++ (++ = 6-10 fluorescent cells per optical field)
expression of Human albumin (Synovial cells (SynCs)): +++ (+++ = 10-20 fluorescent cells per optical field)
expression of alpha-fetoprotein (Synovial cells (SynCs)): + (+ = 1-5 fluorescent cells per optical field)
expression of c-KIT (Synovial cells (SynCs)): + (+ = 1-5 fluorescent cells per optical field)
expression of CD29 [2]: + (+ = 1-5 fluorescent cells per optical field)
expression of CD71 [2]: ++ (++ = 6-10 fluorescent cells per optical field)
expression of CD90 [2]: + (+ = 1-5 fluorescent cells per optical field)
expression of CD105 [2]: + (+ = 1-5 fluorescent cells per optical field)
expression of Human albumin [2]: ++ (++ = 6-10 fluorescent cells per optical field)
expression of alpha-fetoprotein [2]: + (+ = 1-5 fluorescent cells per optical field)
expression of c-KIT [2]: + (+ = 1-5 fluorescent cells per optical field)
expression of CD14 (THP-1 cells (PSC-THP1)): + (+ = 1-5 fluorescent cells per optical field)
expression of CD34 (THP-1 cells (PSC-THP1)): −−−−−
expression of Cytokeratin 7 (THP-1 cells (PSC-THP1)): +++++ (+++++ > 50 fluorescent cells per optical field)
expression of Cytokeratin 8 (THP-1 cells (PSC-THP1)): ++++ (++++ = 20-50 fluorescent cells per optical field)
expression of Cytokeratin 18 (THP-1 cells (PSC-THP1)): +++ (+++ = 10-20 fluorescent cells per optical field)
expression of Cytokeratin 19 (THP-1 cells (PSC-THP1)): +++++ (+++++ > 50 fluorescent cells per optical field)
expression of Cytokeratins 7/17 (THP-1 cells (PSC-THP1)): ++++ (++++ = 20-50 fluorescent cells per optical field)
expression of Human albumin (THP-1 cells (PSC-THP1)): +++++ (+++++ > 50 fluorescent cells per optical field)
expression of alpha-fetoprotein (THP-1 cells (PSC-THP1)): ++ (++ = 6-10 fluorescent cells per optical field)
expression of c-KIT (THP-1 cells (PSC-THP1)): + (+ = 1-5 fluorescent cells per optical field)
expression of c-Met (THP-1 cells (PSC-THP1)): ++ (++ = 6-10 fluorescent cells per optical field)
